Data from patent publication US10758609B2, “Cross-reactive T-cell epitopes of HIV, SIV, and FIV for vaccines in humans and cats” (priority 2015, dated 2020).

Tests used:
[1] = tested on: CD3^+CD8^+ T cells from HIV^+ subjects; test: CFSE-based CD3+CD8+ T-cell proliferation, HIV+ human subjects; conditions: for CD8, frequency of responders: FIV epitope peptide; for CD8^+ T (T-cell proliferation), frequency of responders: FIV peptides
Protocol: (§1) The overlapping peptide pools of FIV and HIV-1 structural and enzyme proteins were used to stimulate the […] (PBMC) and the T cells from HIV^+ subjects as previously described for epitope mapping of HIV-1 and FIV p24 and reverse transcriptase (RT) (Sanou et al., 2013; Roff et al., 2015). The individual peptides in those peptide pools with positive responses to either interferon-γ (IFNγ) production and/or T-cell proliferation were determined with IFNγ ELISpot analysis and CFSE-based CD3^+CD4^+ and CD3^+CD8^+ T-cell proliferation analyses followed by the FACS-based intracellular staining (ICS) for cytolysin (perforin) and cytotoxin (granzyme A [GrzA] and GrzB) (Sanou et al., 2013; Roff et al., 2015). Besides viral p24 and RT proteins, the identical approach was used to identify anti-HIV/FIV T-cell epitopes on viral matrix (MA), nucleocapsid (NC), protease (PR), RNAase, integrase (IN), surface envelope (SU Env), and transmembrane envelope (TM Env) (FIG. 12).
(§2) Since our goal is to develop HIV vaccine for human use, the HIV peptides (Table 10) counterpart of the cross-reactive FIV peptides shown in Table 9 were tested with PBMC and T cells from HIV^+ subjects. The immune functions analyzed were human IFNγ production by ELISpot, cytolysin/cytotoxin production by ICS, and CFSE-based proliferation of CD3^+CD4^+ and CD3^+CD8^+ T cells from HIV^+ subjects (Table 10, the first set of results). In addition, the Los Alamos National Laboratories (LANL) database was used to identify the HLA allele(s) of the HIV epitope sequence with CTL activity that can exist within the sequence of the conserved counterpart HIV peptide (Table 9, LANL CTL). The bold HLA class-I supertypes and the bold 2-digit alleles are those on the “Optimal CD8^+ CTL Epitopes” list and those without bold are alleles for potential CTL epitope. […] The HLA class II such as HLA-DRB1 has yet to be fully classified into supertypes, and therefore the 4-digit resolution nomenclatures for the HLA-DRB1 alleles are shown.
(§3) The threshold for positive IFNγ and IL2 ELISpot responses is ≥50 spot-forming units (SFU) per 10^6 PBMC. The threshold for CFSE-based CD4^+ and CD8^+ T-cell proliferation is ≥2% CD4^+ T-cell CFSE^low or CD8^+ T-cell CFSE^low. The threshold of FACS-based intracellular cytokine staining (ICS) is ≥0.2%. […] The nine FIV peptides in black were used in the current MAP vaccine trial, whereas the 13 peptides in blue were not used. […] The MAPs and their corresponding peptide(s) were also tested for their ability to enhance or suppress in vitro FIV infection of feline PBMC (E/S of peptides and E/S of MAP).
(§4) The counterpart HIV-1 peptides of the FIV peptides were also tested for immunogenicity using PBMC and T cells from HIV^+ human subjects. […] The HRT7-1 and HRT7-2 were also tested with cells from HIV^+ subjects on ART. The threshold for positive IFNγ ELISpot response is ≥75 spot-forming units (SFU) per 10^6 PBMC. The threshold for CFSE-based CD4^+ (CD4^+ T) and CD8^+ (CD8^+ T) T-cell proliferation is ≥2% CD4^+ T-cell CFSE^low or CD8^+ T-cell CFSE^low. The threshold of intracellular cytokine staining (ICS) of FACS-based cytolysin (perforin) and cytotoxins (granzymes A and B) in CD4^+ T cells (CyCD4) and CD8^+ T cells (CyCD8) is ≥0.2%. […] The nine HIV-1 peptides in black are the counterpart FIV peptides used in the current MAP vaccine trial, whereas the 13 peptides in blue were not.

[2] = tested on: CD3^+CD4^+ T cells from HIV^+ subjects; test: CFSE-based CD3+CD4+ T-cell proliferation, HIV+ human subjects; conditions: for CD4, frequency of responders: FIV epitope peptide; for CDC4^+ T (T-cell proliferation), frequency of responders: FIV peptides
Protocol: as §1, §2, §3, §4

Sequence | CD8, frequency of responders [1] | CD8^+ T (T-cell proliferation), frequency of responders [1] | CD4, frequency of responders [2] | CDC4^+ T (T-cell proliferation), frequency of responders [2]
AGLRQSLEQYQVVKQ [FSU4] | — (0%-1.4% (—)) | — (0%-1.4%(—)) | — (0%-1.4% (—)) | — (0%-1.4%(—))
KFLYTAFAMQELR [FTM4-3] | — (0%-1.4% (—)) | — (0%-1.4%(—)) | — (0%-1.4% (—)) | — (0%-1.4%(—))
KKKSGKWRMLIDFRV [FRT3-3] | ++++ (>54% (++++)) | ++++ (>54% (++++)) | — (0%-1.4% (—)) | — (0%-1.4%(—))
LLLILCLPTLVDCIRN [FTM8(20)] | ++++ (>54% (++++)) | ++++ (>54% (++++)) | ++ (26%-40% (++)) | ++ (25.1%-40% (++))
PTDMATLIMAAPGCA [Fp4-3] | — (0%-1.4% (—)) | — (0%-1.4%(—)) | — (0%-1.4% (—)) | — (0%-1.4%(—))
WRMLIDFRVLNKL [FRT3-4] | ++ (26%-40% (++)) | ++ (25.1%-40% (++)) | — (0%-1.4% (—)) | — (0%-1.4%(—))
